The record followed here is patent US11976083B2, “Inhibitors of peptidylarginine deiminases” (Gilead Sciences, Inc., priority 2020, dated 2024).

This experiment has as its target T1, human PAD4 (Homo sapiens, UniProt Q9UM07).
T1 construct: human PAD4 (NM_012387), A2-P663, was PCR amplified; His-SUMO (N, cleaved yes); made in house; host or cells: E. coli BL21(DE3)
Briefly: In vitro PAD4 BAEE biochemical assay. The conditions noted are these: BAEE substrate 3 mM, 5 nM PAD4, 2 mM calcium chloride; geometric mean of multiple experiments. The procedure, abridged: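 Fluorescence read-out (ex 405/em 535 nm) of isoindole formed from ammonia, o-phthalaldehyde and DTT after EDTA stop. Reaction: 5 nM PAD4, 2 mM CaCl2, 3 mM BAEE, 2 h, 25 °C, after 30 min enzyme–compound preincubation. Normalised to BB-Cl-Amidine (50 µM) and DMSO controls.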

T1 sequence (Q9UM07 2-663): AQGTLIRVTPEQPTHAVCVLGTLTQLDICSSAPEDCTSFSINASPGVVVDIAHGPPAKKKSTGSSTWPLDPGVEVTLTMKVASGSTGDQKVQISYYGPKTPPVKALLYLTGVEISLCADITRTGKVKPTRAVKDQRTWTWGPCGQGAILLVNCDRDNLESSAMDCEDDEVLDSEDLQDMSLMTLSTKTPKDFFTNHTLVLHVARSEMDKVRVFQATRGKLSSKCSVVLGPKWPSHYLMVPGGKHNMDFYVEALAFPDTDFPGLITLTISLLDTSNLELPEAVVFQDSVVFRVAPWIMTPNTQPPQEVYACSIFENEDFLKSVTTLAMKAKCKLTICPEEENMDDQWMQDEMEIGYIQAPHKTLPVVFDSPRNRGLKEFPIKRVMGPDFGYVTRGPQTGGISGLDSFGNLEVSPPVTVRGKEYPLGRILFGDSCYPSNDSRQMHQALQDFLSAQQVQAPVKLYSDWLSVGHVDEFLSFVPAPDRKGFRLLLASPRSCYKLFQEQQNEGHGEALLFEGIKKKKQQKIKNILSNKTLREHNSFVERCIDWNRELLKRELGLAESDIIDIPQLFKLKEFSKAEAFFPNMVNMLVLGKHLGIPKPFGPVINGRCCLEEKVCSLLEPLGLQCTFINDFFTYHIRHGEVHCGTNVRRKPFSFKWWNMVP

By IC50 is commonly meant the concentration needed to halve the response being measured. As to `COc1cc(C(=O)N2CCC[C@@H](N)C2)cc2nc(-c3cc4ccc5nc4n3CCCCCCC(=O)N[C@@H]5C)c(C)n12` [Example 300, (10~{R})-16-[7-[(3~{R})-3-aminopiperidine-1-carbonyl]-5-methoxy-3-methyl-imidazo[1,2-a]pyridin-2-yl]-10-methyl-1,9,18-triazatricyclo[9.5.2.0^{14,17}]octadeca-11(18),12,14(17),15-tetraen-8-one], the IC50 came out at 50 nM.
With `COc1cc(C(=O)N2[C@H]3CC[C@@H]2[C@H](N)C3)cc2nc(-c3cc4ccc5nc4n3CCCCCC[C@H](C)C(=O)N[C@@H]5C)c(C)n12` [Example 124, (8~{S},11~{R})-17-[7-[(1~{R},2~{R},4~{S})-2-amino-7-azabicyclo[2.2.1]heptane-7-carbonyl]-5-methoxy-3-methyl-imidazo[1,2-a]pyridin-2-yl]-8,11-dimethyl-1,10,19-triazatricyclo[10.5.2.0^{15,18}]nonadeca-12(19),13,15(18),16-tetraen-9-one] the figure was 12 nM; with `COc1cc(C(=O)N2CCC[C@@H](N)C2)cc2nc(-c3cc4ccc5nc4n3CCCCCCc3ccccc3C(=O)N[C@@H]5C)n(C)c12` [Example 29, (2~{R})-18-[5-[(3~{R})-3-aminopiperidine-1-carbonyl]-7-methoxy-1-methyl-benzimidazol-2-yl]-2-methyl-3,17,23-triazatetracyclo[15.5.2.0^{5,10}.0^{20,24}] tetracosa-1(23),5,7,9,18,20(24),21-heptaen-4-one], 70 nM; with `C[C@H]1NC(=O)c2ccc(C3CC3)nc2CCCCCn2c(-c3nc4cc(C(=O)N5C[C@H](N)[C@@H]6CC[C@H]5C6)cc(F)c4n3C3CC3)cc3ccc1nc32` [Example 813, (2˜{R})-17-[5-[(1˜{S},4˜{R},5˜{R})-4-amino-2-azabicyclo[3.2.1]octane-2-carbonyl]-1-cyclopropyl-7-fluoro-benzimidazol-2-yl]-8-cyclopropyl-2-methyl-3,9,16,22-tetrazatetracyclo[14.5.2.0^{5,10}.0^{19,23}]tricosa-1(21),5(10),6,8,17,19,22-heptaen-4-one], 26 nM.
`COc1cc(C(=O)N[C@H]2CNC[C@@H](C)C2)cc2nc(-c3cc4ccc5nc4n3CCCCCCC(C)(C)C(=O)N[C@@H]5C)n(C)c12` [Example 68, 7-methoxy-1-methyl-~{N}-[(3~{R},5~{S})-5-methyl-3-piperidyl]-2-[(11~{R})-8,8,11-trimethyl-9-oxo-1,10,19-triazatricyclo[10.5.2.0^{15,18}]nonadeca-12(19),13,15(18),16-tetraen-17-yl]benzimidazole-5-carboxamide]: the IC50 is 287 nM.
As for `CO[C@@H]1CCN(C(=O)c2cc(F)c3c(c2)nc(-c2cc4ccc5nc4n2CCCCCc2nccnc2C(=O)N[C@@H]5C)n3C2CC2)C[C@@H]1N` [Example 578, (2~{R})-17-[5-[(3~{S},4~ {R})-3-amino-4-methoxy-piperidine-1-carbonyl]-1-cyclopropyl-7-fluoro-benzimidazol-2-yl]-2-methyl-3,6,9,16,22-pentazatetracyclo[14.5.2.0^ {5,10}.0^{19,23}] tricosa-1(22),5(10),6,8,17, 19(23),20-heptaen-4-one], the IC50 came out at 78 nM.
With `COc1cc(C(=O)N2CCC[C@@H](N)C2)cc2nc(-c3cc4ccc5nc4n3CCCCCCOc3ccccc3C(=O)N[C@@H]5C)c(C)n12` [Example 147, (2~{R})-19-[7-[(3~{R})-3-aminopiperidine-1-carbonyl]-5-methoxy-3-methyl-imidazo[1,2-a]pyridin-2-yl]-2-methyl-11-oxa-3,18,24-triazatetracyclo [16.5.2.0^{5,10}.0^{21,25}] pentacosa-1(24),5(10),6,8,19,21(25),22-heptaen-4-one] the figure was 365 nM; with `COc1cc(C(=O)N2C[C@H](N)[C@@H]3CC[C@H]2C3)cc2nc(-c3cc4ccc5nc4n3CC(F)(F)CCCCC(C)(C)C(=O)N[C@@H]5C)n(C3CC3)c12` [Example 941, (11~{R})-17-[5-[(1~{S},4~{R}, 5~{R})-4-amino-2-azabicyclo [3.2.1]octane-2-carbonyl]-1-cyclopropyl-7-methoxy-benzimidazol-2-yl]-3,3-difluoro-8,8,11-trimethyl-1,10,19-triazatricyclo[10.5.2.0^{15,18}] nonadeca-12(19), 13,15(18),16-tetraen-9-one], 68 nM.
In the case of `COc1cc(C(=O)N2[C@H]3CC[C@@H]2[C@H](N)C3)cc2nc(-c3cc4ccc5nc4n3CCCCCCCC3(CC3)C(=O)N[C@@H]5C)n(C)c12` [Example 281, (12~{R})-18-[5-[(1~{R},2~{R},4~{S})-2-amino-7-azabicyclo[2.2.1]heptane-7-carbonyl]-7-methoxy-1-methyl-benzimidazol-2-yl]-12-methyl-spiro[1,11,20-triazatricyclo[11.5.2.0^{16,19}]icosa-13(20),14,16(19),17-tetraene-9,1′-cyclopropane]-10-one] it was 88 nM; in that of `C[C@H]1NC(=O)c2cc(Cl)ncc2CCCCCn2c(-c3nc4cc(C(=O)N5C[C@H](N)[C@@H]6CC[C@H]5C6)cc(F)c4n3C3CC3)cc3ccc1nc32` [Example 672, (2~{R})-17-[5-[(1~{S},4~ {R},5~{R})-4-amino-2-azabicyclo[3.2.1]octane-2-carbonyl]-1-cyclopropyl-7-fluoro-benzimidazol-2-yl]-7-chloro-2-methyl-3,8,16,22-tetrazatetracyclo [14.5.2.0^{5,10}.0^{19,23}] tricosa-1(22),5(10),6,8,17,19 (23),20-heptaen-4-one], 28 nM.
In the case of `COc1cc(C(=O)N2C[C@H](N)[C@@H]3CC[C@H]2C3)cc2nc(-c3cc4ccc5nc4n3CCCCCc3cc(Cl)ncc3C(=O)N[C@@H]5C)n(C3CC3)c12` [Example 818, (2~{R})-17-[5-[(1~{S},4~{R}, 5~{R})-4-amino-2-azabicyclo[3.2.1]octane-2-carbonyl]-1-cyclopropyl-7-methoxy-benzimidazol-2-yl]-8-chloro-2-methyl-3,7,16,22-tetrazatetracyclo[14.5.2.0^ {5,10).0^{19,23}]tricosa-1(21),5(10),6,8,17,19,22-heptaen-4-one] it was 12 nM.
Turning to `CO[C@@H]1CCN(C(=O)c2ccc3c(c2)nc(-c2cc4ccc5nc4n2CCCCCc2ccnc(C)c2C(=O)N[C@@H]5C)n3C2CC2)C[C@@H]1N` [Example 696, (2~{R})-17-[5-[(3~{S}, 4~{R})-3-amino-4-methoxy-piperidine-1-carbonyl]-1-cyclopropyl-benzimidazol-2-yl]-2,6-dimethyl-3,7,16,22-tetrazatetracyclo [14.5.2.0^{5,10}.0^{19,23}] tricosa-1(22),5(10), 6,8,17,19(23),20-heptaen-4-one], the IC50 was 48 nM.
With `COc1cc(C(=O)N2C[C@H](N)C[C@H](O)[C@@H]2C)cc2nc(-c3cc4ccc5nc4n3CCCCCCC(C)(C)C(=O)N[C@@H]5C)n(C)c12` [Example 786, (11~{R})-17-[5-[(2~{S},3~ {S},5~{R})-5-amino-3-hydroxy-2-methyl-piperidine-1-carbonyl]-7-methoxy-1-methyl-benzimidazol-2-yl]-8,8,11-trimethyl-1,10,19-triazatricyclo[10.5.2.0^ {15,18}]nonadeca-12,14,16,18-tetraen-9-one] the figure was 237 nM; with `C[C@H]1NC(=O)[C@@H]2C[C@H]2CCCC(F)(F)Cn2c(-c3nc4cc(C(=O)N[C@H]5CNCC[C@@H]5F)c(F)c(F)c4n3C)cc3ccc1nc32` [Example 560, 2-[(2~{R},5~{R},7~ {R})-11,11-difluoro-2-methyl-4-oxo-3,13,19-triazatetracyclo[11.5.2.0^ {5,7}.0^{16,20}]icosa-1(19), 14,16(20),17-tetraen-14-yl]-6,7-difluoro-~{N}-[(3~{S},4~{S})-4-fluoro-3-piperidyl]-1-methyl-benzimidazole-5-carboxamide], 52 nM; with `COc1cc(C(=O)N2CC[C@@H](OC)[C@@H](N)C2)cc2nc(-c3cc4ccc5nc4n3C[C@H]3C[C@H]3CCC[C@@](C)(C(F)(F)F)C(=O)N[C@@H]5C)n(C)c12` [Example 372, (3~{S},5~{R},9~{R},12~{R})-18-[5-[(3~{S},4~{R})-3-amino-4-methoxy-piperidine-1-carbonyl]-7-methoxy-1-methyl-benzimidazol-2-yl]-9,12-dimethyl-9-(trifluoromethyl)-1,11,20-triazatetracyclo[11.5.2.0^{3,5}.0^{16,19}] icosa-13(20),14,16(19),17-tetraen-10-one], 183 nM.
In the case of `COc1cc(C(=O)N[C@H]2CNCC[C@@H]2F)cc2nc(-c3cc4ccc5nc4n3CCCCCc3cccc(C)c3C(=O)N[C@@H]5C)n(C)c12` [Example 363, 2-[(2~{R})-2,6-dimethyl-4-oxo-3,16,22-triazatetracyclo[14.5.2.0^{5,10}.0^{19,23}]tricosa-1(22),5(10),6,8,17,19(23),20-heptaen-17-yl]-~{N}-[(3~{S},4~{S})-4-fluoro-3-piperidyl]-7-methoxy-1-methyl-benzimidazole-5-carboxamide] it was 110 nM.
With `COc1cc(C(=O)N2CC[C@@H]3CCCN[C@@H]3C2)cc2nc(-c3cc4ccc5nc4n3CCCCCCC(C)(C)C(=O)N[C@@H]5C)n(C)c12` (single isomer, unassigned) [Example 262, (11˜{R})-17-[5-[(4˜{a}˜{S},8˜{a}˜{S})-2,3,4,4˜{a},5,6,8,8˜{a}-octahydro-1˜{H}-1,7-naphthyridine-7-carbonyl]-7-methoxy-1-methyl-benzimidazol-2-yl]-8,8,11-trimethyl-1,10,19-triazatricyclo[10.5.2.0^{15,18}]nonadeca-12(19),13,15(18),16-tetraen-9-one] the figure was 4440 nM.
